Experimental data reported in patent US6413956B1, “Substituted 4-oxo-quinoline-3-carboxamides” (Neurogen Corporation, priority 1999, dated 2002).

Row | melting point | Compound
1 | 190 to 191 °C | CCCCNC(=O)c1c[nH]c2ccc(OCC)cc2c1=O [compound 53, N-Butyl 6-ethoxy-4-oxo-1,4-dihydro-quinoline-3-carboxamide]
2 | 180 to 183 °C | CCCCCNC(=O)c1c[nH]c2ccc(OCC)cc2c1=O [compound 54, N-Pentyl 6-ethoxy-4-oxo-1,4-dihydro-quinoline-3-carboxamide]
3 | 219 to 221 °C | CCCNC(=O)c1c[nH]c2ccc(OCC)cc2c1=O [compound 55, N-Propyl 6-ethoxy-4-oxo-1,4-dihydro-quinoline-3-carboxamide]
4 | 214 to 216 °C | CCOc1ccc2[nH]cc(C(=O)NCC(C)C)c(=O)c2c1 [compound 56, N-[(2-Methyl)propyl] 6-ethoxy-4-oxo-1,4-dihydro-quinoline-3-carboxamide]
5 | 181 to 182 °C | CCCCCCNC(=O)c1c[nH]c2ccc(OCC)cc2c1=O [compound 57, N-Hexyl 6-ethoxy-4-oxo-1,4-dihydro-quinoline-3-carboxamide]
6 | 279 to 281 °C | CCOc1ccc2[nH]cc(C(=O)NC)c(=O)c2c1 [compound 58, N-Methyl 6-ethoxy-4-oxo-1,4-dihydro-quinoline-3-carboxamide]
7 | 203 to 205 °C | CCOc1ccc2[nH]cc(C(=O)NCc3ccsc3)c(=O)c2c1 [compound 59, N-[(3-Thienyl)methyl] 6-ethoxy-4-oxo-1,4-dihydro-quinoline-3-carboxamide]
8 | 161 to 165 °C | CCOc1ccc2[nH]cc(C(=O)NCc3ccc(Cn4ccnc4)cc3)c(=O)c2c1 [compound 66, N-[4-[(1-Imidazolyl)methyl]benzyl} 6-ethoxy-4-oxo-1,4-dihydro-quinoline-3-carboxamide]
9 | 273 to 276 °C | O=C(NCc1ccc(F)cc1)c1c[nH]c2ccc(Cl)cc2c1=O [compound 73, N-4-Fluorobenzyl 6-chloro-4-oxo-1,4-dihydroquinoline-3-carboxamide]
10 | 162 to 164 °C | CCOc1ccc2[nH]cc(C(=O)NCc3ccc(CN(Cc4ccccc4)Cc4ccccc4)cc3)c(=O)c2c1 [compound 82, N-[4-(Dibenzylaminomethyl)benzyl] 6-ethoxy-4-oxo-1,4-dihydro-quinoline-3-carboxamide]
11 | 123 to 127 °C | CCOc1ccc2[nH]cc(C(=O)NCc3ccc(CNCCN4CCOCC4)cc3)c(=O)c2c1 [compound 83, N-{4-[[2-(4-Morpholinyl)ethyl]aminomethyl]benzyl} 6-ethoxy-4-oxo-1,4-dihydro-quinoline-3-carboxamide]
12 | 129 to 132 °C | CCOc1ccc2[nH]cc(C(=O)NCc3ccc(CN(CC)Cc4ccccc4)cc3)c(=O)c2c1 [compound 97, N-{4-[(N-Benzyl-N-ethylamino)methyl]benzyl} 6-ethoxy-4-oxo-1,4-dihydroquinoline-3-carboxamide]
13 | 129 to 131 °C | CCOc1ccc2[nH]cc(C(=O)NCc3ccc(CN(C)Cc4ccccc4)cc3)c(=O)c2c1 [compound 98, N-{4-[(N-Benzyl-N-methylamino)methyl]benzyl} 6-ethoxy-4-oxo-1,4-dihydroquinoline-3-carboxamide]
14 | 137 to 139 °C | CCOc1ccc2[nH]cc(C(=O)NCc3ccc(CN(C)CCc4ccccc4)cc3)c(=O)c2c1 [compound 99, N-{4-[(N-Methyl-N-phenethylamino)methyl]benzyl} 6-ethoxy-4-oxo-1,4-dihydroquinoline-3-carboxamide]
15 | 172 to 174 °C | CCOc1ccc2[nH]cc(C(=O)NCc3ccc(CN4CCCCC4)cc3)c(=O)c2c1 [compound 102, N-{4-[(1-Piperidinyl)methyl]benzyl} 6-ethoxy-4-oxo-1,4-dihydroquinoline-3-carboxamide]
16 | 168 to 171 °C | CCOc1ccc2[nH]cc(C(=O)NCc3ccc(CN4CCCC4)cc3)c(=O)c2c1 [compound 103, N-{4-[(1-Pyrrolidinyl)methyl]benzyl} 6-ethoxy-4-oxo-1,4-dihydroquinoline-3-carboxamide]
17 | 151 to 153 °C | COCc1ccc2[nH]cc(C(=O)NCc3cccc(CN4CCOCC4)c3)c(=O)c2c1 [compound 105, N-{3-[(4-Morpholinyl)methyl]benzyl} 6-methoxymethyl-4-oxo-1,4-dihydroquinoline-3-carboxamide]
18 | 144 to 146 °C | CCOc1ccc2[nH]cc(C(=O)NCc3cccc(CN(C)Cc4ccccc4)c3)c(=O)c2c1 [compound 108, N-{3-[(N-Benzyl-N-methylamino)methyl]benzyl}-6-ethoxy-4-oxo-1,4-dihydroquinoline-3-carboxamide]
19 | 173 to 177 °C | CCOc1ccc2[nH]cc(C(=O)NCc3cccc(CN4CCOCC4)c3)c(=O)c2c1 [compound 117, N-[3-(4-Morpholinylmethyl)benzyl]-6-ethoxy-4-oxo-1,4-dihydroquinoline-3-carboxamide]
20 | 140 to 144 °C | Cc1ccc2[nH]cc(C(=O)NCc3cccc(CN4CCOCC4)c3)c(=O)c2c1 [compound 127, N-[3-(4-Morpholinylmethyl)benzyl]-6-methyl-4-oxo-1,4-dihydroquinoline-3-carboxamide]
21 | 186 to 188 °C | COc1ccc2[nH]cc(C(=O)NCc3cccc(CN(C)Cc4ccccc4)c3)c(=O)c2c1 [compound 130, N-[3-(N-Benzyl-N-methylaminomethyl)benzyl]-6-methoxy-4-oxo-1,4-dihydroquinoline-3-carboxamide]
